“Also recorded” adds a separate entry of the source. Where two headings read alike, the source gives them in different places.
What was measured:
spermidine biosynthesis = conditions: in vitro; concentrations as low as; cited from earlier work
[1] = tested on: Adenocarcinoma (unknown primary); experiment: Response to weekly MGBG, adenocarcinoma; format: in vivo, human
Method: (§1) During the course of the clinical experiments, MGBG was administered to patients in approximately weekly doses ranging from 250 to 1000 mg per square meter.
(§2) Pre-treatment minimum evaluation included chest roentgenogram, liver and renal function tests, complete blood count with differential and platelet count and serum glucose. Pre-treatment performance status was recorded for each patient in accordance with SWOG criteria.
(§3) This intravenous infusion is administered to the patient over a period of time not less than 30 minutes. Accordingly, an approximation of the patient's surface area in square meters is calculated using a height and weight to surface area nomogram (listed in Documenta Geigy, Scientific Tables (1970) p. 537) and this factor is applied in determining the appropriate amount of MGBG salt to be added to the infusion solution. […] In the absence of toxicity, subsequent doses of MGBG are increased by 100 mg/m^2 over the previous week's dose. If patients experience moderate or severe reversible toxicity, the dose is reduced by 100 mg/m^2 relative to the previous week's dose. No change in dosage strength is made for mild toxicity.

[2] = human subjects undergoing MGBG treatment; cited from earlier work
protein synthesis = conditions: in vitro; cited from earlier work
[3] = some peculiar to certain animal species; cited from earlier work
Pancreas = experiment: Response to weekly MGBG, pancreas; format: in vivo, human; conditions: 5 evaluable patients
Method: as §1, §2, §3

Head & Neck = experiment: Response to weekly MGBG, head & neck; format: in vivo, human; conditions: 2 evaluable patients
Method: as §1, §2, §3

Oat Cell = experiment: Response to weekly MGBG, oat cell; format: in vivo, human; conditions: 1 evaluable patient
Method: as §1, §2, §3

Leukemia = experiment: Response to weekly MGBG, leukemia; format: in vivo, human; conditions: 1 mg/m^2 weekly for three weeks; 1 evaluable patient
Method: **Patient received 1 mg/m^2 weekly for three weeks

Prostate = experiment: Response to weekly MGBG, prostate; format: in vivo, human; conditions: 6 evaluable patients
Method: as §1, §2, §3

Hepatoma = experiment: Response to weekly MGBG, hepatoma; format: in vivo, human; conditions: 1 evaluable patient
Method: as §1, §2, §3

[4] = cited from earlier work
DNA synthesis = conditions: reversed by exogenous spermidine; cited from earlier work
Ewings = experiment: Response to weekly MGBG, Ewings; format: in vivo, human; conditions: 1 evaluable patient
Method: as §1, §2, §3

[5] = tested on: Bladder (transitional cell); experiment: Response to weekly MGBG, bladder; format: in vivo, human
Method: as §1, §2, §3

Esophagus = experiment: Response to weekly MGBG, esophagus; format: in vivo, human
Method: as §1, §2, §3

Lymphoma = experiment: Response to weekly MGBG, lymphoma; format: in vivo, human; conditions: 2 evaluable patients
Method: as §1, §2, §3

Melanoma = experiment: Response to weekly MGBG, melanoma; format: in vivo, human; conditions: 1 evaluable patient
Method: as §1, §2, §3

[6] = over three weeks, 30240 min; cited from earlier work
[7] = tested on: advanced malignant disease; experiment: Response to weekly MGBG, all diagnoses (Table I); format: in vivo, human
Method: as §1, §2, §3

polyamine synthesis = conditions: in vitro; cited from earlier work
Renal = experiment: Response to weekly MGBG, renal; format: in vivo, human
Method: as §1, §2, §3

Colon = experiment: Response to weekly MGBG, colon; format: in vivo, human; conditions: 14 evaluable patients
Method: as §1, §2, §3

adenocarcinoma-755 = conditions: Freelander and French; cited from earlier work
[8] = cited from earlier work; remark: listed apart in the source
[9] = tested on: acute myelocytic leukemia; conditions: cited from earlier work
Breast = experiment: Response to weekly MGBG, breast; format: in vivo, human; conditions: 12 evaluable patients
Method: as §1, §2, §3

[10] = acute leukemia, iv 150 mg/m^2/day
[11] = lymphomas and solid tumors, iv 150 mg/m^2/day

## CC(C=NNC(=N)N)=NNC(=N)N [MGBG, 1,1'-[(methylethanediylidene)dinitrilo] diguanidine]
Spermidine biosynthesis
  concentration at which MGBG is a potent inhibitor of spermidine biosynthesis: ≥ 0.5 µg/mL
[1]; 3 evaluable patients
  CR (Complete response): 1
  CR + PR: 1
  IMP (Improvement noted): 1
  PR (Partial response): 1
[1]; duration of CR + PR
  Duration Months: 2 Months
[2]
  toxic effects unique to man: esophagitis, ulcerative pharyngitis, laryngitis, stomatitis, genital mucosa swelling, conjunctivitis, mucositis, erythema, edema, desquamating dermatitis, and profound anorexia with associated weight loss; also recorded: mucositis, vasculitis, and profound anorexia with associated weight loss
Protein synthesis
  concentration with direct toxic effects, including inhibition of protein synthesis: ≥ 30000 ng/mL
[3]
  toxicological effects observed: gastrointestinal toxicity, delayed and fatal hypoglycemia, hepatic and renal damage, bone marrow depression, diarrhea and phlebitis
Pancreas
  CR + PR: 2
  No Response: 3
  PR (Partial response): 2
Head & Neck
  No Response: 2
Oat Cell
  IMP (Improvement noted): 1
Leukemia
  IMP (Improvement noted): 1
Prostate
  IMP (Improvement noted): 1
  No Response: 5
Hepatoma
  No Response: 1
[4]; patient 1, 230 mg/m^2/day
  Days to first Toxicity: 16 days
  Response: None
[4]; patient 2, 340 mg/m^2/day
  Days to first Toxicity: 7 days
  Response: None
[4]; patient 3, 256 mg/m^2/day
  Days to first Toxicity: 9 days
  Response: Partial
[4]; patient 4, 264 mg/m^2/day
  Days to first Toxicity: 7 days
  Response: Complete
[4]; patient 5, 252 mg/m^2/day
  Days to first Toxicity: 10 days
  Response: Complete
[4]; patient 6, 156 mg/m^2/day
  Days to first Toxicity: 10 days
  Response: Complete
[4]; patient 7, 194 mg/m^2/day
  Days to first Toxicity: 6 days
  Response: Complete
[4]; patient 8, 194 mg/m^2/day
  Days to first Toxicity: 7 days
  Response: Complete
[4]; patient 9, 150 mg/m^2/day
  Days to first Toxicity: 23 days
  Response: Partial
  Toxic Manifestation: None
[4]; patient 10, 150 mg/m^2/day
  Days to first Toxicity: 24 days
  Response: Complete
  Toxic Manifestation: None
[4]; patient 11, 150 mg/m^2/day
  Days to first Toxicity: 15 days
  Response: Complete
  Toxic Manifestation: None
[4]; patient 12, 150 mg/m^2/day
  Days to first Toxicity: 13 days
  Response: Complete
[4]; patient 13, 150 mg/m^2/day
  Days to first Toxicity: 13 days
  Response: Complete
  Toxic Manifestation: None
DNA synthesis
  MGBG-mediated depression of DNA synthesis, associated changes: spermidine depletion and putrescine accumulation
Ewings
  No Response: 1
[5]; 3 evaluable patients
  CR (Complete response): 1
  CR + PR: 1
  No Response: 2
[5]; duration of CR + PR
  Duration Months: 1 Months
Esophagus; 2 evaluable patients
  CR + PR: 1
  No Response: 1
  PR (Partial response): 1
Esophagus; duration of CR + PR
  Duration Months: 3 Months
Lymphoma
  No Response: 2
Melanoma
  IMP (Improvement noted): 1
[6]
  administered intravenous dose excreted in the feces: less than 20%
  administered intravenous dose excreted in the urine: 50%
[7]; 12 patients, 250 mg/m^2
  biologic effect at 250 mg/m^2: no apparent biologic effect
[7]; first twelve patients, 250 mg/m^2 weekly
  response at 250 mg/m^2 weekly: no response
[7]; weekly, 65 evaluable patients
  CR (Complete response), total: 2
  CR + PR, total: 11
  IMP (Improvement noted), total: 9
  No Response, total: 45
  PR (Partial response), total: 9
[7]; weekly, colon, esophageal, renal cell, prostate, and breast carcinoma
  antineoplastic activity in solid tumors: effective
Polyamine synthesis
  intermediate concentrations acting selectively on all polyamine synthesis: 0.6 to 2.4 µg/mL
Renal; 5 evaluable patients
  CR + PR: 1
  IMP (Improvement noted): 2
  No Response: 2
  PR (Partial response): 1
Renal; duration of CR + PR
  Duration Months: 5 Months
Colon
  CR + PR: 3
  No Response: 11
  PR (Partial response): 3
adenocarcinoma-755
  antitumor activity: antitumor activity
[8]; [10]
  Leukopenia <3000/mm^3 or <50% of initial value: 16 patients
  Leukopenia <3000/mm^3 or <50% of initial value, severe toxicity which contributed to death: 1 patients
[8]; intravenous 150 mg/m^2/day, Regelson and Holland
  response to MGBG: seen only in the presence of significant toxicity which seriously compromised any clinical improvement
[8]; iv 150 mg/m^2/day, 46 patients
  "Myositis": 5 patients
  Cutaneous lesions: 12 patients
  Diarrhea: 32 patients
  Diarrhea, severe toxicity which contributed to death: 1 patients
[8]; iv 150 mg/m^2/day, 63 courses in 46 patients
  Oropharyngeal and/or esophageal toxicity: 43 patients
[8]; iv 150 mg/m^2/day
  Hypoglycemia <60 mg %: 4 patients
  Hypoglycemia <60 mg %, severe toxicity which contributed to death: 2 patients
  Laryngitis: 14 patients
  Laryngitis, severe toxicity which contributed to death: 1 patients
  Proctitis: 2 patients
  Vulvovaginitis: 4 patients
[8]; [11]
  Leukopenia <3000 mm^3: 5 patients
  Leukopenia <3000 mm^3, severe toxicity which contributed to death: 1 patients
  Thrombocytopenia <75,000/mm^3: 3 patients
[8]; of 27 patients who died while on study
  deaths to which severe toxicity contributed: 6 patients
[9]; average daily parenteral dose of 126 to 160 mg/m^2, Levin et al.
  remission rate (complete remissions): 45%
[9]; daily dosing schedule
  activity in acute myelocytic leukemia: major activity
[9]; from 2.5 months, compared to patients with myeloblastic leukemia treated with 6-mercaptopurine
  median increase in survival: 6.5 months
Breast
  IMP (Improvement noted): 2
  No Response: 10
